Experimental data as given in ChEMBL document CHEMBL1909046, “DrugMatrix in vitro pharmacology data”.
pIC50, pKi: −log10 of the molar value.

Target: Cytochrome P450 2E1 (Homo sapiens, UniProt P05181); further: in other assays of this panel Not Active means under 50% inhibition at 10 µM
Assay: not given
Conditions: bti-tn-5b1-4

Chain of Cytochrome P450 2E1 (P05181 whole entry): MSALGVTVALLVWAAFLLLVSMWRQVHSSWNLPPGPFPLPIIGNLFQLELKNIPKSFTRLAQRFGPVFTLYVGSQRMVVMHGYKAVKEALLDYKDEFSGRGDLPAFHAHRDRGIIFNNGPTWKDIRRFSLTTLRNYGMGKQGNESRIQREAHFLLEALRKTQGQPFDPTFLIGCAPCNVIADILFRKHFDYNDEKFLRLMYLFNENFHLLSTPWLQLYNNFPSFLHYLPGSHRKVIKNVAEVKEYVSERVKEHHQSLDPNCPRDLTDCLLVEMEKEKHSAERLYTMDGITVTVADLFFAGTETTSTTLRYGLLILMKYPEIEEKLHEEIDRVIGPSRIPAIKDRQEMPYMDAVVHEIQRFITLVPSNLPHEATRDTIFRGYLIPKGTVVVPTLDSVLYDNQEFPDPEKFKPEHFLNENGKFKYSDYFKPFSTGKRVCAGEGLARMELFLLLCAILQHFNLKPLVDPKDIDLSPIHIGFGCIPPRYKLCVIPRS

SMILES	IC50	Ki
Fc1ccc([C@@H]2CCNC[C@H]2COc2ccc3c(c2)OCO3)cc1 [PAROXETINE]	Not Active	Not Active
Cc1ccccc1N1CCN(CCc2nnc3n2CCCC3)CC1 [DAPIPRAZOLE]	Not Active	Not Active
Oc1c(Cl)cc(Cl)cc1Sc1cc(Cl)cc(Cl)c1O [BITHIONOL]	Not Active	Not Active
Cc1[nH]cnc1CN1CCc2c(c3ccccc3n2C)C1=O [ALOSETRON]	Not Active	Not Active

Target: 5-hydroxytryptamine receptor 2B (Homo sapiens, UniProt P41595); further: in other assays of this panel Not Active means under 50% inhibition at 10 µM
Sequence (P41595 whole entry): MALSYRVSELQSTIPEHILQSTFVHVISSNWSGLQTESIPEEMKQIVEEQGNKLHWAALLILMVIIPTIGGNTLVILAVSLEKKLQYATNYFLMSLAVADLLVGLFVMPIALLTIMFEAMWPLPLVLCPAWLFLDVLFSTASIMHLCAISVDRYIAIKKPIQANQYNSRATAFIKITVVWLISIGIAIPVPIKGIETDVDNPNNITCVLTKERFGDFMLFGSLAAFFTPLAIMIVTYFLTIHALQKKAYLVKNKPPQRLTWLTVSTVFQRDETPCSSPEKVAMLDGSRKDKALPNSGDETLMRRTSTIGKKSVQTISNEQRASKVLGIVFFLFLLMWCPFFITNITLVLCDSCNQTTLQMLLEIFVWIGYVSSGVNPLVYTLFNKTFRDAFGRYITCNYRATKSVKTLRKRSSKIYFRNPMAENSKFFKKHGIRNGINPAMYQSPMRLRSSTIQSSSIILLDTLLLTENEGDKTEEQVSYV
Assay: not given
Format: cell membranes, CHO-K1, Membrane
Conditions: cho-k1

SMILES	IC50
Fc1ccc([C@@H]2CCNC[C@H]2COc2ccc3c(c2)OCO3)cc1 [PAROXETINE]	Not Active

Same assay, conditions: read-out: IC50

SMILES	pIC50
Cc1ccccc1N1CCN(CCc2nnc3n2CCCC3)CC1 [DAPIPRAZOLE]	5.98

Same assay, conditions: read-out: Ki

SMILES	pKi
Cc1ccccc1N1CCN(CCc2nnc3n2CCCC3)CC1 [DAPIPRAZOLE]	6.17

Target: T1, Alpha-1B adrenergic receptor (Rattus norvegicus, UniProt P15823)
T1 sequence (P15823 whole entry): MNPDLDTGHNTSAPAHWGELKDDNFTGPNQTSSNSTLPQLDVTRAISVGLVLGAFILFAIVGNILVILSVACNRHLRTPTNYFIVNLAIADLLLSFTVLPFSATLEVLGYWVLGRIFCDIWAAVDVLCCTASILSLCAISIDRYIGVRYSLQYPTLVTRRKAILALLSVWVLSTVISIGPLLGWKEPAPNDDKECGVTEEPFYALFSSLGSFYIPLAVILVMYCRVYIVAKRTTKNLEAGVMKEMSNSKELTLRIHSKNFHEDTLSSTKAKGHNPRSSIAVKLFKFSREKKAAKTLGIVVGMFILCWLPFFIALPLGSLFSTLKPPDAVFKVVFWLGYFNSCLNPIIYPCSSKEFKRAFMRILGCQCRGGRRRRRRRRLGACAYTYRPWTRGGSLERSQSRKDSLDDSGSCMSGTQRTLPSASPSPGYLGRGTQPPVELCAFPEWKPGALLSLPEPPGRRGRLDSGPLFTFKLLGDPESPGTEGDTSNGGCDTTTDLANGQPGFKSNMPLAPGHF
Assay: DRUGMATRIX: Alpha-1B adrenergic receptor radioligand binding (ligand: prazosin)
Format: cell membranes, Wistar, Liver, Membrane
Conditions: Not Active = under 50% inhibition at 10 µM

SMILES	IC50
Fc1ccc([C@@H]2CCNC[C@H]2COc2ccc3c(c2)OCO3)cc1 [PAROXETINE]	Not Active
Oc1c(Cl)cc(Cl)cc1Sc1cc(Cl)cc(Cl)c1O [BITHIONOL]	Not Active
Cc1[nH]cnc1CN1CCc2c(c3ccccc3n2C)C1=O [ALOSETRON]	Not Active

Target: T2, Polyunsaturated fatty acid lipoxygenase ALOX15 (Oryctolagus cuniculus, UniProt P12530);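 further: inhibition of 15-lipoxygenase enzyme activity measured with linoleic acid as the substrate; in other assays of this panel Not Active means under 50% inhibition at 10 µM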
T2 sequence (P12530 whole entry): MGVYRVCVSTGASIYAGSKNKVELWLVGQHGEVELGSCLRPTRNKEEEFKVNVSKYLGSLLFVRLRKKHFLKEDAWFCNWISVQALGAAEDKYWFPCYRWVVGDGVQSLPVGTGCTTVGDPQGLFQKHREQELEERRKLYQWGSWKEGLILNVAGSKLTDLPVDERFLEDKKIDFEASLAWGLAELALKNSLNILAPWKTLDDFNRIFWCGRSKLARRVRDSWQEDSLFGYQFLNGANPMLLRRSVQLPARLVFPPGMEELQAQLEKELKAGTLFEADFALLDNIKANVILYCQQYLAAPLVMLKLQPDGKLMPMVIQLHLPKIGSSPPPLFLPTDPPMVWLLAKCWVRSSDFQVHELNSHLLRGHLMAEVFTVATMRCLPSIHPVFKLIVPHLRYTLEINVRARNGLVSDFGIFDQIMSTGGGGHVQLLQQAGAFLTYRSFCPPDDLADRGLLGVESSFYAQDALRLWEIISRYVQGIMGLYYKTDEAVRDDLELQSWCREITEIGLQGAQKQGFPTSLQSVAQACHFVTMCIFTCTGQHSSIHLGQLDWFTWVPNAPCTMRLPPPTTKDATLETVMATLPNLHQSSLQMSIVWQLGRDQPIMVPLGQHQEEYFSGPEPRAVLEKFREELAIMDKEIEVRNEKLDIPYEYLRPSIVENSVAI
Assay: biochemical
Format: tissue-based, Reticulocytes
Conditions: reticulocytes

SMILES	IC50
Fc1ccc([C@@H]2CCNC[C@H]2COc2ccc3c(c2)OCO3)cc1 [PAROXETINE]	Not Active
Cc1ccccc1N1CCN(CCc2nnc3n2CCCC3)CC1 [DAPIPRAZOLE]	Not Active
Oc1c(Cl)cc(Cl)cc1Sc1cc(Cl)cc(Cl)c1O [BITHIONOL]	Not Active
Cc1[nH]cnc1CN1CCc2c(c3ccccc3n2C)C1=O [ALOSETRON]	Not Active

Target: Cytochrome P450 2D6 (Homo sapiens, UniProt P10635); further: in other assays of this panel Not Active means under 50% inhibition at 10 µM
Sequence (P10635 whole entry): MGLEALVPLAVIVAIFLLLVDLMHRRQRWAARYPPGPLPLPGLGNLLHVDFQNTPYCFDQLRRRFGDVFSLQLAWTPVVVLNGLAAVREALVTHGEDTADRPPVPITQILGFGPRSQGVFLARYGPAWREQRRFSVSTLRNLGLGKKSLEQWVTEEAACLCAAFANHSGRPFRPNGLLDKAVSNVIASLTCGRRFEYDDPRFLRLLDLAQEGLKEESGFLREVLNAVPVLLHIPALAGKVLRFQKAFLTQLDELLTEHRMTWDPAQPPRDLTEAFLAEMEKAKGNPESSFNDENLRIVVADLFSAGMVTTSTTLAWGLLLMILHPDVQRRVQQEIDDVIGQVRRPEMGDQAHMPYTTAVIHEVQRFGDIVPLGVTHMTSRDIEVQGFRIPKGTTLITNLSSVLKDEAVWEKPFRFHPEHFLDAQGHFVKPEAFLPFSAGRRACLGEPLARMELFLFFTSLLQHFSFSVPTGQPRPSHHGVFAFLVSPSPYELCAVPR
Assay: not given
Conditions: bti-tn-5b1-4

SMILES	IC50	Ki
Cc1ccccc1N1CCN(CCc2nnc3n2CCCC3)CC1 [DAPIPRAZOLE]	Not Active	Not Active
Oc1c(Cl)cc(Cl)cc1Sc1cc(Cl)cc(Cl)c1O [BITHIONOL]	Not Active	Not Active
Cc1[nH]cnc1CN1CCc2c(c3ccccc3n2C)C1=O [ALOSETRON]	Not Active	Not Active

Target: D(1A) dopamine receptor (Homo sapiens, UniProt P21728)
Sequence (P21728 whole entry): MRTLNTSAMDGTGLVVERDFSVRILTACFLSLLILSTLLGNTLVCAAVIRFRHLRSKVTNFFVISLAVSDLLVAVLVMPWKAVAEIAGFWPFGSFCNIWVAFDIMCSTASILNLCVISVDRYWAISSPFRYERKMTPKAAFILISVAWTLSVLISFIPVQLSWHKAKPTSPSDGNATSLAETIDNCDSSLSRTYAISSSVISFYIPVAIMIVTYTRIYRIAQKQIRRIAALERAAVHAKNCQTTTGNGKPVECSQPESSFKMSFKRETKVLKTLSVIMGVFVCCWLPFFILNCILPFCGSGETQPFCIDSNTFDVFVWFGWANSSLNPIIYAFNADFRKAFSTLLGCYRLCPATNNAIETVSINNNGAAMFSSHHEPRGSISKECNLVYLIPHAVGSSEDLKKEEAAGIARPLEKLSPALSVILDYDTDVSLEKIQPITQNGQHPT
Assay: DRUGMATRIX: Dopamine D1 radioligand binding (ligand: [3H] SCH-23390)
Format: cell membranes, CHO, Membrane
Conditions: cho; Not Active = under 50% inhibition at 10 µM

SMILES	IC50
Fc1ccc([C@@H]2CCNC[C@H]2COc2ccc3c(c2)OCO3)cc1 [PAROXETINE]	Not Active
Cc1ccccc1N1CCN(CCc2nnc3n2CCCC3)CC1 [DAPIPRAZOLE]	Not Active
Oc1c(Cl)cc(Cl)cc1Sc1cc(Cl)cc(Cl)c1O [BITHIONOL]	Not Active
Cc1[nH]cnc1CN1CCc2c(c3ccccc3n2C)C1=O [ALOSETRON]	Not Active

Target: Beta-3 adrenergic receptor (Homo sapiens, UniProt P13945)
Sequence (P13945 whole entry): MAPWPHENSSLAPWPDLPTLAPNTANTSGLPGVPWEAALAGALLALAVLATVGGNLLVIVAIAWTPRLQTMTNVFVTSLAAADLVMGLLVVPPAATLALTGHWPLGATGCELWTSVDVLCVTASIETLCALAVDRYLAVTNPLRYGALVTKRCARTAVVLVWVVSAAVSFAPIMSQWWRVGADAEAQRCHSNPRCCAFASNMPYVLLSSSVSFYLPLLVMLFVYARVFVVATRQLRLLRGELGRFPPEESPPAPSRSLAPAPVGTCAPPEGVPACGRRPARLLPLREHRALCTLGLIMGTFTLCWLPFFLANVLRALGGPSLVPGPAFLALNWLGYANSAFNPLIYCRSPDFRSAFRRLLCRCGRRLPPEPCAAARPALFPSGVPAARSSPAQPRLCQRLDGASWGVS
Assay: DRUGMATRIX: Adrenergic beta3 radioligand binding (ligand: [125I] Cyanopindolol)
Format: cell membranes, HEK293, Membrane
Conditions: hek293; Not Active = under 50% inhibition at 10 µM

SMILES	IC50
Fc1ccc([C@@H]2CCNC[C@H]2COc2ccc3c(c2)OCO3)cc1 [PAROXETINE]	Not Active
Cc1ccccc1N1CCN(CCc2nnc3n2CCCC3)CC1 [DAPIPRAZOLE]	Not Active
Oc1c(Cl)cc(Cl)cc1Sc1cc(Cl)cc(Cl)c1O [BITHIONOL]	Not Active
Cc1[nH]cnc1CN1CCc2c(c3ccccc3n2C)C1=O [ALOSETRON]	Not Active

Target: T3, C-X-C chemokine receptor type 2 (Homo sapiens, UniProt P25025); further: in other assays of this panel Not Active means under 50% inhibition at 10 µM
T3 sequence (P25025 whole entry): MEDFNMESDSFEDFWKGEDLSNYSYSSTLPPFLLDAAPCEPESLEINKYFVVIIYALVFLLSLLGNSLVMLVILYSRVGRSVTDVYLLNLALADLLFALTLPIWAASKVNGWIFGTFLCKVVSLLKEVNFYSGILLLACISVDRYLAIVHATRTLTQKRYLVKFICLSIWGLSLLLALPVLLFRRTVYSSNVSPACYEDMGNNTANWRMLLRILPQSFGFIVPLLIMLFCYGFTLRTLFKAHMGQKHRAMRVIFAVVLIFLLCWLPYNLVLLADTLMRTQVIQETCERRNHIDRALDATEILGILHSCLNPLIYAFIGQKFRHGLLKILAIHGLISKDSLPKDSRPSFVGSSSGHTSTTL
Assay: not given
Format: cell membranes, Membrane
Conditions: cho-k1

SMILES	IC50
Fc1ccc([C@@H]2CCNC[C@H]2COc2ccc3c(c2)OCO3)cc1 [PAROXETINE]	Not Active
Cc1ccccc1N1CCN(CCc2nnc3n2CCCC3)CC1 [DAPIPRAZOLE]	Not Active
Oc1c(Cl)cc(Cl)cc1Sc1cc(Cl)cc(Cl)c1O [BITHIONOL]	Not Active
Cc1[nH]cnc1CN1CCc2c(c3ccccc3n2C)C1=O [ALOSETRON]	Not Active

System: not listed separately
Assay: DRUGMATRIX: Calcium Channel Type L, Benzothiazepine radioligand binding (ligand: [3H] Diltiazem)
Format: cell membranes, Rattus norvegicus, Wistar, Brain, Membrane
Conditions: Not Active = under 50% inhibition at 10 µM

SMILES	IC50	Ki
Cc1ccccc1N1CCN(CCc2nnc3n2CCCC3)CC1 [DAPIPRAZOLE]	Not Active	Not Active
Oc1c(Cl)cc(Cl)cc1Sc1cc(Cl)cc(Cl)c1O [BITHIONOL]	Not Active	Not Active
Cc1[nH]cnc1CN1CCc2c(c3ccccc3n2C)C1=O [ALOSETRON]	Not Active	Not Active

Same assay, conditions: Not Active = under 50% inhibition at 10 µM; read-out: IC50

SMILES	pIC50
Fc1ccc([C@@H]2CCNC[C@H]2COc2ccc3c(c2)OCO3)cc1 [PAROXETINE]	6.43

Same assay, conditions: Not Active = under 50% inhibition at 10 µM; read-out: Ki

SMILES	pKi
Fc1ccc([C@@H]2CCNC[C@H]2COc2ccc3c(c2)OCO3)cc1 [PAROXETINE]	6.48

Target: Histamine H2 receptor (Homo sapiens, UniProt P25021); further: in other assays of this panel Not Active means under 50% inhibition at 10 µM
Sequence (P25021 whole entry): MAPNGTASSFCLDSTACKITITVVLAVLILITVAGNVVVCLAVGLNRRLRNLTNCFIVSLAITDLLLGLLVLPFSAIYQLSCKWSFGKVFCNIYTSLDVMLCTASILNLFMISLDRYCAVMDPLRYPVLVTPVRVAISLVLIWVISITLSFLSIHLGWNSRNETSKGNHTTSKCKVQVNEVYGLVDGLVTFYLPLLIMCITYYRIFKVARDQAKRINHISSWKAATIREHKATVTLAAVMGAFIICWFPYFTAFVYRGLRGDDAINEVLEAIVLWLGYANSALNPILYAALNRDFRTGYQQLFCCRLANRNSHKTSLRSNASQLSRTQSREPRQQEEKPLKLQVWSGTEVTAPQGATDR
Assay: not given
Format: cell membranes, CHO-K1, Membrane
Conditions: cho-k1

SMILES	IC50
Fc1ccc([C@@H]2CCNC[C@H]2COc2ccc3c(c2)OCO3)cc1 [PAROXETINE]	Not Active
Cc1ccccc1N1CCN(CCc2nnc3n2CCCC3)CC1 [DAPIPRAZOLE]	Not Active
Oc1c(Cl)cc(Cl)cc1Sc1cc(Cl)cc(Cl)c1O [BITHIONOL]	Not Active
Cc1[nH]cnc1CN1CCc2c(c3ccccc3n2C)C1=O [ALOSETRON]	Not Active

System: not listed separately
Assay: DRUGMATRIX: GABAA, Chloride Channel, TBOB radioligand binding (ligand: [3H] TBOB)
Format: cell membranes, Rattus norvegicus, Wistar, Cerebral cortex, Membrane
Conditions: Not Active = under 50% inhibition at 10 µM

SMILES	IC50	Ki
Fc1ccc([C@@H]2CCNC[C@H]2COc2ccc3c(c2)OCO3)cc1 [PAROXETINE]	Not Active	Not Active
Cc1ccccc1N1CCN(CCc2nnc3n2CCCC3)CC1 [DAPIPRAZOLE]	Not Active	Not Active
Oc1c(Cl)cc(Cl)cc1Sc1cc(Cl)cc(Cl)c1O [BITHIONOL]	Not Active	Not Active
Cc1[nH]cnc1CN1CCc2c(c3ccccc3n2C)C1=O [ALOSETRON]	Not Active	Not Active

Target: T4, Adenosine receptor A3 (Homo sapiens, UniProt P0DMS8)
T4 sequence (P0DMS8 whole entry): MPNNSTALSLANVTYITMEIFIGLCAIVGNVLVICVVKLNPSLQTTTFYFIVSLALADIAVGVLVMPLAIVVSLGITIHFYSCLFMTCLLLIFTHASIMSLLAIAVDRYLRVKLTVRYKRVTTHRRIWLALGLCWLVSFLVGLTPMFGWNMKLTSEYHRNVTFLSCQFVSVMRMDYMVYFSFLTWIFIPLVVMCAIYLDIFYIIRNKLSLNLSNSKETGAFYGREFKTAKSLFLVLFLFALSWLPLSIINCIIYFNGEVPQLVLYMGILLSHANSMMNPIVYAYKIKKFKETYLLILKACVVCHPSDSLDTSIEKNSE
Assay: not given
Format: cell membranes, CHO-K1, Membrane
Conditions: cho-k1

SMILES	IC50
Fc1ccc([C@@H]2CCNC[C@H]2COc2ccc3c(c2)OCO3)cc1 [PAROXETINE]	Not Active
Cc1ccccc1N1CCN(CCc2nnc3n2CCCC3)CC1 [DAPIPRAZOLE]	Not Active
Cc1[nH]cnc1CN1CCc2c(c3ccccc3n2C)C1=O [ALOSETRON]	Not Active

Same assay, conditions: read-out: IC50

SMILES	pIC50
Oc1c(Cl)cc(Cl)cc1Sc1cc(Cl)cc(Cl)c1O [BITHIONOL]	6.08

Same assay, conditions: read-out: Ki

SMILES	pKi
Oc1c(Cl)cc(Cl)cc1Sc1cc(Cl)cc(Cl)c1O [BITHIONOL]	6.33

Target: 5-hydroxytryptamine receptor 6 (Homo sapiens, UniProt P50406); further: in other assays of this panel Not Active means under 50% inhibition at 10 µM
Sequence (P50406 whole entry): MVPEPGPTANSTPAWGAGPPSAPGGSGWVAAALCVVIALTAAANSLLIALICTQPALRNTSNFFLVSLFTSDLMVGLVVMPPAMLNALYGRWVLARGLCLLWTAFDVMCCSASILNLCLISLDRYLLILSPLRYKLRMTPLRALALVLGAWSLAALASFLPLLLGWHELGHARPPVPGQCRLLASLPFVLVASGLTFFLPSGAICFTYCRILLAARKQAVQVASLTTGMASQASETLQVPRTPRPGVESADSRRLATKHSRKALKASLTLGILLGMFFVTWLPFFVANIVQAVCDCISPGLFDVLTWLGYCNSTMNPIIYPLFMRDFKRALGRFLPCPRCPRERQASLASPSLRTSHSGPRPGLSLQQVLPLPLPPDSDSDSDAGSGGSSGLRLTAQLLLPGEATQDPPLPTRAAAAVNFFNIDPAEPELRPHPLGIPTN
Assay: not given
Format: cell membranes, HeLa, Membrane
Conditions: hela

SMILES	IC50
Fc1ccc([C@@H]2CCNC[C@H]2COc2ccc3c(c2)OCO3)cc1 [PAROXETINE]	Not Active
Cc1ccccc1N1CCN(CCc2nnc3n2CCCC3)CC1 [DAPIPRAZOLE]	Not Active
Oc1c(Cl)cc(Cl)cc1Sc1cc(Cl)cc(Cl)c1O [BITHIONOL]	Not Active
Cc1[nH]cnc1CN1CCc2c(c3ccccc3n2C)C1=O [ALOSETRON]	Not Active
